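Test compounds were applied to cells in 96-well plates for 48 hours at 5 doses. TGI is the concentration that stops growth completely.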
Experiments:
Assay in all cases: DTP human tumour cell line panel, 48 h
DU-145 prostate = tested on: DU-145 prostate
PC-3 prostate = tested on: PC-3 prostate
HT29 colon = tested on: HT29 colon
A549 NSCLC = tested on: A549 NSCLC
TK-10 renal = tested on: TK-10 renal
SF-539 CNS = tested on: SF-539 CNS
OVCAR-8 ovarian = tested on: OVCAR-8 ovarian
OVCAR-3 ovarian = tested on: OVCAR-3 ovarian
SK-MEL-28 melanoma = tested on: SK-MEL-28 melanoma
IGROV1 ovarian = tested on: IGROV1 ovarian
NCI-H226 lung = tested on: NCI-H226 lung
HOP-62 NSCLC = tested on: HOP-62 NSCLC
OVCAR-4 ovarian = tested on: OVCAR-4 ovarian
HL-60(TB) leukemia = tested on: HL-60(TB) leukemia
LOX IMVI melanoma = tested on: LOX IMVI melanoma
EKVX NSCLC = tested on: EKVX NSCLC
HCT-116 colon = tested on: HCT-116 colon
MALME-3M melanoma = tested on: MALME-3M melanoma
CCRF-CEM leukemia = tested on: CCRF-CEM leukemia
NCI-H460 lung = tested on: NCI-H460 lung
UO-31 renal = tested on: UO-31 renal
COLO 205 colon = tested on: COLO 205 colon
HS 578T breast = tested on: HS 578T breast
ACHN renal = tested on: ACHN renal
SW-620 colon = tested on: SW-620 colon
NCI-H522 lung = tested on: NCI-H522 lung
MCF7 breast = tested on: MCF7 breast
MDA-MB-231 breast = tested on: MDA-MB-231 breast
KM12 colon = tested on: KM12 colon
HOP-92 NSCLC = tested on: HOP-92 NSCLC
HCT-15 colon = tested on: HCT-15 colon
786-0 renal = tested on: 786-0 renal
SN12C renal = tested on: SN12C renal
UACC-257 melanoma = tested on: UACC-257 melanoma
SK-MEL-5 melanoma = tested on: SK-MEL-5 melanoma
SNB-75 CNS = tested on: SNB-75 CNS
K-562 leukemia = tested on: K-562 leukemia
CAKI-1 renal = tested on: CAKI-1 renal
M14 melanoma = tested on: M14 melanoma
HCC-2998 colon = tested on: HCC-2998 colon
SF-295 CNS = tested on: SF-295 CNS
MDA-MB-435 = tested on: MDA-MB-435
RPMI-8226 leukemia = tested on: RPMI-8226 leukemia
T-47D breast = tested on: T-47D breast
MOLT-4 leukemia = tested on: MOLT-4 leukemia
SNB-19 CNS = tested on: SNB-19 CNS
SR leukemia = tested on: SR leukemia
MDA-N = tested on: MDA-N
OVCAR-5 ovarian = tested on: OVCAR-5 ovarian
NCI-H23 lung = tested on: NCI-H23 lung
SK-MEL-2 melanoma = tested on: SK-MEL-2 melanoma
SF-268 CNS = tested on: SF-268 CNS
NCI/ADR-RES ovarian = tested on: NCI/ADR-RES ovarian
U251 CNS = tested on: U251 CNS
SK-OV-3 ovarian = tested on: SK-OV-3 ovarian
UACC-62 melanoma = tested on: UACC-62 melanoma

CCn1cc(C(=O)O)c(=O)c2ccc(C)nc21
TGI (DU-145 prostate): > 100 µM | TGI (PC-3 prostate): > 100 µM | TGI (HT29 colon): > 100 µM | TGI (A549 NSCLC): > 100 µM | TGI (TK-10 renal): > 100 µM | TGI (SF-539 CNS): > 100 µM | TGI (OVCAR-8 ovarian): > 100 µM | TGI (OVCAR-3 ovarian): > 100 µM | TGI (SK-MEL-28 melanoma): > 100 µM | TGI (IGROV1 ovarian): > 100 µM | TGI (NCI-H226 lung): > 100 µM | TGI (HOP-62 NSCLC): > 100 µM | TGI (OVCAR-4 ovarian): > 100 µM | TGI (HL-60(TB) leukemia): > 100 µM | TGI (LOX IMVI melanoma): > 100 µM | TGI (EKVX NSCLC): > 100 µM | TGI (HCT-116 colon): > 100 µM | TGI (MALME-3M melanoma): > 100 µM | TGI (CCRF-CEM leukemia): > 100 µM | TGI (NCI-H460 lung): > 100 µM | TGI (UO-31 renal): > 100 µM | TGI (COLO 205 colon): > 100 µM | TGI (HS 578T breast): > 100 µM | TGI (ACHN renal): > 100 µM | TGI (SW-620 colon): > 100 µM | TGI (NCI-H522 lung): > 100 µM | TGI (MCF7 breast): > 100 µM | TGI (MDA-MB-231 breast): > 100 µM | TGI (KM12 colon): > 100 µM | TGI (HOP-92 NSCLC): > 100 µM | TGI (HCT-15 colon): > 100 µM | TGI (786-0 renal): > 100 µM | TGI (SN12C renal): > 100 µM | TGI (UACC-257 melanoma): > 100 µM | TGI (SK-MEL-5 melanoma): > 100 µM | TGI (SNB-75 CNS): > 100 µM | TGI (K-562 leukemia): > 100 µM | TGI (CAKI-1 renal): > 100 µM | TGI (M14 melanoma): > 100 µM | TGI (HCC-2998 colon): > 100 µM | TGI (SF-295 CNS): > 100 µM | TGI (MDA-MB-435): > 100 µM | TGI (RPMI-8226 leukemia): > 100 µM | TGI (T-47D breast): > 100 µM | TGI (MOLT-4 leukemia): > 100 µM | TGI (SNB-19 CNS): > 100 µM | TGI (SR leukemia): > 100 µM | TGI (MDA-N): > 100 µM | TGI (OVCAR-5 ovarian): > 100 µM | TGI (NCI-H23 lung): > 100 µM | TGI (SK-MEL-2 melanoma): > 100 µM | TGI (SF-268 CNS): > 100 µM | TGI (NCI/ADR-RES ovarian): > 100 µM | TGI (U251 CNS): > 100 µM

Nc1ccc(Sc2nnc(N)s2)cc1
TGI (PC-3 prostate): > 100 µM | TGI (A549 NSCLC): > 100 µM | TGI (TK-10 renal): > 100 µM | TGI (SF-539 CNS): > 100 µM | TGI (OVCAR-8 ovarian): > 100 µM | TGI (SK-MEL-28 melanoma): > 100 µM | TGI (IGROV1 ovarian): > 100 µM | TGI (HOP-62 NSCLC): > 100 µM | TGI (OVCAR-4 ovarian): > 100 µM | TGI (HL-60(TB) leukemia): > 100 µM | TGI (EKVX NSCLC): > 100 µM | TGI (HCT-116 colon): > 100 µM | TGI (CCRF-CEM leukemia): > 100 µM | TGI (NCI-H460 lung): > 100 µM | TGI (UO-31 renal): > 100 µM | TGI (COLO 205 colon): > 100 µM | TGI (HS 578T breast): > 100 µM | TGI (ACHN renal): > 100 µM | TGI (SW-620 colon): > 100 µM | TGI (NCI-H522 lung): > 100 µM | TGI (MCF7 breast): > 100 µM | TGI (MDA-MB-231 breast): > 100 µM | TGI (SK-OV-3 ovarian): > 100 µM | TGI (KM12 colon): > 100 µM | TGI (HCT-15 colon): > 100 µM | TGI (786-0 renal): > 100 µM | TGI (SN12C renal): > 100 µM | TGI (UACC-257 melanoma): > 100 µM | TGI (SK-MEL-5 melanoma): > 100 µM | TGI (SNB-75 CNS): > 100 µM | TGI (K-562 leukemia): > 100 µM | TGI (M14 melanoma): > 100 µM | TGI (HCC-2998 colon): > 100 µM | TGI (SF-295 CNS): > 100 µM | TGI (MDA-MB-435): > 100 µM | TGI (RPMI-8226 leukemia): > 100 µM | TGI (T-47D breast): > 100 µM | TGI (MOLT-4 leukemia): > 100 µM | TGI (SNB-19 CNS): > 100 µM | TGI (SR leukemia): > 100 µM | TGI (MDA-N): > 100 µM | TGI (OVCAR-5 ovarian): > 100 µM | TGI (SF-268 CNS): > 100 µM | TGI (NCI/ADR-RES ovarian): > 100 µM | TGI (U251 CNS): > 100 µM

COc1cc2c3c(c1Oc1nnnn1-c1ccccc1)-c1c(ccc4c1OCO4)C[C@H]3N(C)CC2
TGI (DU-145 prostate): > 100 µM | TGI (PC-3 prostate): > 100 µM | TGI (HT29 colon): 41.9 µM | TGI (A549 NSCLC): > 100 µM | TGI (TK-10 renal): > 100 µM | TGI (SF-539 CNS): > 100 µM | TGI (OVCAR-8 ovarian): > 100 µM | TGI (OVCAR-3 ovarian): > 100 µM | TGI (SK-MEL-28 melanoma): 37.1 µM | TGI (IGROV1 ovarian): > 100 µM | TGI (NCI-H226 lung): > 100 µM | TGI (HOP-62 NSCLC): > 100 µM | TGI (HL-60(TB) leukemia): > 100 µM | TGI (LOX IMVI melanoma): 77.5 µM | TGI (EKVX NSCLC): > 100 µM | TGI (HCT-116 colon): > 100 µM | TGI (MALME-3M melanoma): 34.8 µM | TGI (CCRF-CEM leukemia): > 100 µM | TGI (NCI-H460 lung): > 100 µM | TGI (UO-31 renal): > 100 µM | TGI (COLO 205 colon): > 100 µM | TGI (HS 578T breast): > 100 µM | TGI (ACHN renal): 88.7 µM | TGI (SW-620 colon): > 100 µM | TGI (NCI-H522 lung): 94.6 µM | TGI (MDA-MB-231 breast): > 100 µM | TGI (SK-OV-3 ovarian): > 100 µM | TGI (KM12 colon): > 100 µM | TGI (HOP-92 NSCLC): 78.6 µM | TGI (HCT-15 colon): 73.1 µM | TGI (786-0 renal): 39.7 µM | TGI (SN12C renal): > 100 µM | TGI (UACC-257 melanoma): 40 µM | TGI (SK-MEL-5 melanoma): > 100 µM | TGI (SNB-75 CNS): 91.3 µM | TGI (K-562 leukemia): > 100 µM | TGI (M14 melanoma): 37.5 µM | TGI (HCC-2998 colon): 36.3 µM | TGI (SF-295 CNS): > 100 µM | TGI (MDA-MB-435): 51.3 µM | TGI (RPMI-8226 leukemia): > 100 µM | TGI (T-47D breast): > 100 µM | TGI (MOLT-4 leukemia): > 100 µM | TGI (SNB-19 CNS): > 100 µM | TGI (SR leukemia): > 100 µM | TGI (UACC-62 melanoma): 29 µM | TGI (MDA-N): 55.1 µM | TGI (OVCAR-5 ovarian): > 100 µM | TGI (NCI-H23 lung): > 100 µM | TGI (SK-MEL-2 melanoma): > 100 µM | TGI (SF-268 CNS): > 100 µM | TGI (NCI/ADR-RES ovarian): > 100 µM | TGI (U251 CNS): > 100 µM
